Source: US12064514B2, “Ultrasound-sensitive peptide particles for spatially resolved molecule delivery” (The Penn State Research Foundation, priority 2017, dated 2024)

Assays:
[1] = tested on: green fluorescent protein (GFP); experiment: screening of fluorine-containing cargo solubilizing agents for GFP dispersion in perfluorocarbon; conditions: for GFP dispersion efficiency: in PFH, after resuspension in aqueous buffer
Experimental: For each condition, 200 ul of compounds+PFH was aliquoted into an Eppendorf tube containing individually dried GFP stocks (1 uM) for 9 replicates. Each tube was parafilmed, vortexed, placed on VWR tube rotator overnight at 4° C., and then centrifuged for 5 min at 4000 rpm. Next, 100 ul of each sample was aliquoted onto a black bottom 96-well plate for fluorescence scan from 500 to 560. The 96-well plate was then placed in 37° C. overnight to dry the PFH. The dry samples were resuspended in 100 ul PBS and scanned for fluorescence using BioTek Cytation 3 imaging reader. […] Here, PFH is used as a surrogate for the penultimate solvent perfluoro-n-pentane (PFP) used to form the peptisome core, as PFP has a low boiling point and low surface tension, making it difficult to use in these screening experiments.
Fluorine-containing cargo solubilizing agent #6 (perfluorononanoic acid, PNFA) was dissolved at various concentrations in PFH to achieve molar ratios with GFP at 400:1 to 50,000:1 fluorine-containing cargo solubilizing agent-to-GFP. For this molar ratio screening, PFNA was vortexed and sonicated to dissolve into PFH at 0.4, 2, 50, and 100 mM. For each condition, 200 ul of PFNA+PFH was aliquoted into an Eppendorf tube containing individually dried GFP (1 uM) for 9 replicates. Each tube was parafilmed, vortexed, placed on VWR tube rotator overnight at 4° C., and then centrifuged for 5 min at 4000 rpm. Next, 100 ul of each sample was aliquoted onto a black bottom 96-well plate for fluorescence scan from 500 to 560. The 96-well plate was then placed in 37° C. overnight to dry the PFH. The dry samples were resuspended in 100 ul PBS and scanned for fluorescence using BioTek Cytation 3 imaging reader.
For PFH and PFP solvent comparison, 2 mM PFNA was vortexed and sonicated to dissolve into either PFH or PFP on ice. For each condition, 200 ul of adjuvant/PFH or adjuvant/PFP was aliquoted into an Eppendorf tube containing individually dried GFP stocks (1 uM) for 3 replicates. Each tube was parafilmed, vortexed, placed on VWR tube rotator overnight at 4° C., and then centrifuged for 5 min at 4000 rpm. Next, 100 ul of each sample was aliquoted onto a black bottom 96-well plate for fluorescence scan from 500 to 560. The 96-well plate was then placed in 37° C. overnight to dry the PFH and PFP.

αVβ3 integrin = αVβ3 integrin (Homo sapiens, UniProt P05106+P06756); conditions: read-out: binding affinity to αVβ3 integrin (IC50, conc. at which 50% of receptor is bound by ligand); cited from earlier work
αVβ3 integrin, sequence (P06756 31-1048): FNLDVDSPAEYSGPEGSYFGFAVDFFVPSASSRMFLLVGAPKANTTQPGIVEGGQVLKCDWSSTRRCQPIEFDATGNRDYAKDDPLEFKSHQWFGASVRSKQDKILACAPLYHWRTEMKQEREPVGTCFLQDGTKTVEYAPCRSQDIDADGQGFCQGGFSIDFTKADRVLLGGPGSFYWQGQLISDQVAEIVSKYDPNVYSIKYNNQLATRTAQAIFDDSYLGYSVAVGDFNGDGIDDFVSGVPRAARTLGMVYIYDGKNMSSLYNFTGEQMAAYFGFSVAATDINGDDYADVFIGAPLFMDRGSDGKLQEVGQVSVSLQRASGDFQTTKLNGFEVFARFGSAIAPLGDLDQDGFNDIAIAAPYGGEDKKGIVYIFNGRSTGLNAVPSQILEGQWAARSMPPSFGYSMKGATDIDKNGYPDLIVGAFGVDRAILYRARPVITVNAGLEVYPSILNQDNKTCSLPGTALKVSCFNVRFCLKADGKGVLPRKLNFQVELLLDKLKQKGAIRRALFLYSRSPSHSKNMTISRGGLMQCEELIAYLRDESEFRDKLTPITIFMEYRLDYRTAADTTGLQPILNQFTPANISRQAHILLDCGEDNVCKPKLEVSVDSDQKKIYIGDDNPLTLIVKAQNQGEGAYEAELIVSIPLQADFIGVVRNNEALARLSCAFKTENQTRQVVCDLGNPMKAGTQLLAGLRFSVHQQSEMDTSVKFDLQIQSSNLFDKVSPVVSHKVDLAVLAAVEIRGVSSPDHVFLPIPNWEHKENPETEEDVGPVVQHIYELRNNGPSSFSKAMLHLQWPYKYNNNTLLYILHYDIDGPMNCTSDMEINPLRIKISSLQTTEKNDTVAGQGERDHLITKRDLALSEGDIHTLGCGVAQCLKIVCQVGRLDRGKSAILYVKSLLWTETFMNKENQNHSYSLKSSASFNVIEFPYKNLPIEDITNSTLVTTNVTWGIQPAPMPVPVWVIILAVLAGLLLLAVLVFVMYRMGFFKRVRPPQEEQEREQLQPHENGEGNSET
αVβ3 integrin, sequence (P05106 27-788): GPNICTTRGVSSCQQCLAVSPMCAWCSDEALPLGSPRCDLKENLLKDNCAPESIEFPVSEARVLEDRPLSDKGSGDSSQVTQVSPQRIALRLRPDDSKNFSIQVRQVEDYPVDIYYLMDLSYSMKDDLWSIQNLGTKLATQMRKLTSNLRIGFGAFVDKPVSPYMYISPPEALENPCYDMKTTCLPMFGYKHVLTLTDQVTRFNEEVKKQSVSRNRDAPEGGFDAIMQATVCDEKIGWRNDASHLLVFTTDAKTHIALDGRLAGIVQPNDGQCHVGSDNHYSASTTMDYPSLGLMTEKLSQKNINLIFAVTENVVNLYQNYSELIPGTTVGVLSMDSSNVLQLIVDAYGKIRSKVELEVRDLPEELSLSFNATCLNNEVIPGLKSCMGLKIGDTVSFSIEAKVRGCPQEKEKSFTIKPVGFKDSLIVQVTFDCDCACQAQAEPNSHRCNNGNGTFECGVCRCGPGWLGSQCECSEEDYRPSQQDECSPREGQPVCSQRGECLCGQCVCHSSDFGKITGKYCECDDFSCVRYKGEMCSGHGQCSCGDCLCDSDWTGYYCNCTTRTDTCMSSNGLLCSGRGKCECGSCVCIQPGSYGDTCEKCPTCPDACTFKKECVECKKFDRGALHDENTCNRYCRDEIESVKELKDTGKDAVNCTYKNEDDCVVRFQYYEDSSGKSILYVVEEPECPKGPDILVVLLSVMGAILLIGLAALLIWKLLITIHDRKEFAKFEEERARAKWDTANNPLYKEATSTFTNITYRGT

Compound | GFP dispersion efficiency [1] | IC50 (αVβ3 integrin) | also measured
FC(F)(F)C(F)(F)C(F)(F)C(F)(F)C(F)(F)C(F)(F)C(F)(F)C(F)(F)C(F)(F)C(F)(F)C(F)(F)C(F)(F)C(F)(F)C(F)(F)F [Compound 2, perfluoroteradecane] | 5.1% |  | 
GRGDSPK |  | 12.2 ± 0.1 nM | 
GRGD |  | 55 ± 7 nM | 
RGDS |  | 45 ± 5 nM | 
GRGDTP |  | 28 ± 5 nM | 
O=C(O)C(F)(F)C(F)(F)C(F)(F)C(F)(F)F [Compound 5, perfluoropentanoic acid] | 4.3% |  | 
O=C(O)C(F)(F)C(F)(F)C(F)(F)C(F)(F)C(F)(F)C(F)(F)C(F)(F)C(F)(F)F [Compound 6, perfluorononanoic acid] | 39.3% |  | protein dispersed within PFH compared to compound 5 [1]: approximately 10 fold; protein dispersion with PFP compared to PFH ([1]; 2000:1 molar ratio): no significant difference; total GFP loading efficiency into PFH ([1]; molar ratios of 2,000 to 10,000:1 agent-to-GFP): ~63%
GRGDNP |  | 45 ± 12 nM | 
RGD |  | 89 ± 12 nM | 
GRGDS |  | 28 ± 3 nM | 
